Measurements from patent US11306331B2, “Processes for the production of hydroxycinnamic acids using polypeptides having tyrosine ammonia lyase activity” (CysBio ApS, priority 2014, dated 2022).

Target: T1, Flavobacterium johnsoniae FjXAL tyrosine ammonia lyase (Protein GI 146298870), SEQ ID NO: 1, His-tagged (N-terminal tag SEQ ID NO: 11) (Flavobacterium johnsoniae, UniProt A5FKY3)
T1 sequence (A5FKY3 1-506): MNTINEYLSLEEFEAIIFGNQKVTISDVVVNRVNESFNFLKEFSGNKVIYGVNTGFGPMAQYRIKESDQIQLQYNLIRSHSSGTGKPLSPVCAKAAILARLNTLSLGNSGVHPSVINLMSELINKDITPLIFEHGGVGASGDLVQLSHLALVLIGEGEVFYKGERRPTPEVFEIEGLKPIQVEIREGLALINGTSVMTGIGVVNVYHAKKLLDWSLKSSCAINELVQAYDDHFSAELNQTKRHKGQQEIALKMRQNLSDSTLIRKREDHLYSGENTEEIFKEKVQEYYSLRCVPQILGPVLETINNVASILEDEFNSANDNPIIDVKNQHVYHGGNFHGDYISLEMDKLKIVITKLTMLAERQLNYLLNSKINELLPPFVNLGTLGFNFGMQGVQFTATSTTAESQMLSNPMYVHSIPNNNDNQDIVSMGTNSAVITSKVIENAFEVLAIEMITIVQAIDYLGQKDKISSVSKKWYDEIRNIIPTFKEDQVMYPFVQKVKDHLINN
Test: In vitro kinetics of purified His-tagged FjXAL (tyrosine/phenylalanine ammonia lyase activity, absorbance at 315/295 nm)
Assay type: biochemical
Description: The tyrosine ammonia lyase activity may for instance be determined in accordance to the following method: Enzymatic assays are performed in 200 μL volumes in wells in a UV transparent 96-well plate, by following the increase in absorbance at 315 nm (pHCA) using spectrophotometry or HPLC with UV detection. The reaction mixtures contain 2 μg of purified protein and are initiated by adding 1 mM tyrosine or 6 mM after equilibration to 30° C. The enzymatic activity is calculated as U/g, where U is defined as μmol substrate converted per minute. Negative controls contain no purified protein. Kinetic constants Km and vmax are determined from assays containing 1.56 μM to 200 μM tyrosine. See also Kyndt et al. (2002).
Four of the enzymes were further purified by His-tag purification as follows. A DNA linker (5′ phosphorylated oligonucleotides CBJP559 and CBJP560, Table 5) was inserted in place of the sequence between the NdeI and BgIII site in plasmid pCDFDuet-1. This would result in the addition of the amino acids MAHHHHHHENLYFQ (SEQ ID NO: 11) to the N-terminal end of the polypeptides. […]
Enzymatic assays were performed in 200 μL volumes in wells in a UV transparent 96-well plate, by following the increase in absorbance at 315 nm (pHCA) or 295 nm (CA). […] The enzymatic activity was calculated as U/g, where U is defined as μmol substrate converted per minute.

Compound: N[C@@H](Cc1ccc(O)cc1)C(=O)O [Tyr, tyrosine]
- Kcat (30° C, 1.56 μM to 200 μM tyrosine or 193 μM to 25 mM phenylalanine): 0.0212 s⁻¹
- TAL/PAL (ratio of Kcat/Km for Tyr over Phe): 3000
